The values that follow are results of earlier work, collected in article PMC5666773, “Human Immunodeficiency Virus Proteins Mimic Human T Cell Receptors Inducing Cross-Reactive Antibodies” (International Journal of Molecular Sciences, 2017).

For this data set, the target named is naturally circulating anti-insulin. The settings on record: healthy human beings and cats; no clinical effect; read-out: naturally circulating anti-insulin binding.

Regarding insulin, the Kd was approximately 10 µM.
